The numbers were not newly measured in patent publication US20040248214A1, “Novel method of assaying immune activity” (priority 2001, published 2004), which cites them from elsewhere.

One data set has as its system NKT cells. The settings on record: cancer-bearing mouse.

As to `CCCCCCCCCCCCCCCCCCCCCCCCCC(=O)N[C@@H](CO[C@H]1O[C@H](CO)[C@H](O)[C@H](O)[C@H]1O)[C@H](O)[C@H](O)CCCCCCCCCCCCCC` [α-galactosylceramide], in the data set on NKT cells, the “activation of NKT cells” value was “NKT cells were activated”, the disappearance of cancer entry was “disappearance of cancer was not noted” and the metastasis entry is listed as “metastasis was suppressed”.

With IL-12: interleukin 12, where the note is “IL-12 per se directly administered into living body”, the side effect result is “results in a side effect”. Besides, the anti-cancer effect entry (in vivo) is on record as “has an anti-cancer effect”.
